Results published in article PMC4894417, “Quantitative High-Throughput Profiling of Environmental Chemicals and Drugs that Modulate Farnesoid X Receptor” (Scientific Reports, 2014).
Several values for one entry are separate records, joined by “and”; a condition that tells them apart may be missing. Equal entries are not always repeated. Entries after “also recorded” stand apart in the source; their conditions may differ. Where two headings read alike, the source gives them in different places.

Experiments:
FXR-LBD [1] = biological target: T1, FXR-LBD (Homo sapiens, UniProt Q96RI1); assay: FXR TR-FRET coactivator recruitment assay, antagonist mode (50 μM CDCA); format: biochemical
T1 construct: The glutathione S-transferase (GST)-tagged FXR-LBD protein; purchased Life Technologies
T1 sequence (Q96RI1 262-486 limits assumed): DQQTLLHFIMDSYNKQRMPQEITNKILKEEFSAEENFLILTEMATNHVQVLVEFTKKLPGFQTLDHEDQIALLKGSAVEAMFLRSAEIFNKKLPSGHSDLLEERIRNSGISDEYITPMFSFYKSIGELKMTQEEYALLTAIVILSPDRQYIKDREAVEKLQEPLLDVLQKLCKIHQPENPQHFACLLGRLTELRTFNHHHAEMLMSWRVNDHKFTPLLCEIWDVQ

FXR-LBD [2] = biological target: T1, FXR-LBD; assay: FXR TR-FRET coactivator recruitment assay, agonist mode; format: biochemical; details: Table 1; coactivator SRC2-2 recruitment
[3] = system: FXR-UAS-bla HEK293T cells; assay: Cell viability assay (CellTiter Glo) in the same well as FXR-bla; details: for Cell viability IC50: Table 1, mean ± SD of 3 experiments; for Cytotoxicity Efficacy: Table S1, primary screening
human FXR [4] = biological target: T2, human FXR (Homo sapiens, UniProt Q96RI1); assay: FXR-bla reporter gene assay, agonist mode (qHTS); details: for FXR-bla, agonist Efficacy: Table 1, activation as percent of positive control (CDCA 100%), mean ± SD of 3; for FXR agonist activity: FXR-bla assay; for FXR-bla, agonist EC50: Table 1, confirmed compounds, mean ± SD of 3 experiments
human FXR [5] = biological target: T2, human FXR; assay: FXR-bla reporter gene assay, antagonist mode (CDCA-induced transactivation); details: for FXR-bla, antagonist Efficacy: inhibition as percent of positive control (guggulsterone)
[6] = system: FXR-UAS-bla HEK293T cells
[7] = Cell viability assay (CellTiter Glo) in the same well as FXR-bla; details: human, FXR-UAS-bla HEK293T cells
[8] = Table 1, in the presence of 50 μM CDCA
[9] = FXR antagonist mode IC50, Table S1, primary screening, 50 µM CDCA

T2 sequence (Q96RI1 with tags, fused parts or gaps limits assumed): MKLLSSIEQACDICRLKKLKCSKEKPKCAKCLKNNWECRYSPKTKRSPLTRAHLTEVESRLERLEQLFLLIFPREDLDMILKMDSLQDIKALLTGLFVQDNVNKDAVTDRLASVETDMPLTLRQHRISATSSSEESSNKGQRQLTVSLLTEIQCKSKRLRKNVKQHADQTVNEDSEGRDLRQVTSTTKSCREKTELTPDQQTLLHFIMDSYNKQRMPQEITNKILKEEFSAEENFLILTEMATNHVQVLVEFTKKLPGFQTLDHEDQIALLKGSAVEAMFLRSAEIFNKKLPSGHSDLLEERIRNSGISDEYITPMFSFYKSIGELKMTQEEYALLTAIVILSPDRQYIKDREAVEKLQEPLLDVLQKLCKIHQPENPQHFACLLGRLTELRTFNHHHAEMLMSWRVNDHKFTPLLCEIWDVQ

Q: Which results are given for `Nc1c2ccccc2nc2ccccc12` [9-Aminoacridine]?
A: FXR TR-FRET, antagonist IC50 (FXR-LBD [1]; [8]): Inactive; FXR TR-FRET, agonist EC50 (FXR-LBD [2]): unable to induce coactivator recruitment; also recorded: Inactive; Cell viability IC50 [3]: Inactive; EC50 (human FXR [4]): 11.2 ± 2.09 µM; FXR-bla, agonist Efficacy (human FXR [4]): 152% and 152 ± 22%; FXR-bla, antagonist IC50 (human FXR [5]; Table 1, 50 μM CDCA, mean ± SD of 3 experiments): Inactive

Q: With `CC1=C(/C=C/C(C)=C/C=C/C(C)=C\C(=O)O)C(C)(C)CCC1` [13-cis Retinoic acid] as the compound, how does the “Cytotoxicity Efficacy” value [6] read?
A: 52 ± 44

Q: For `C/C=C1/C(=O)C[C@H]2[C@@H]3CCC4=CC(=O)CC[C@]4(C)[C@H]3CC[C@]12C` [(E)-Guggulsterone], which “Cytotoxicity IC50” value [6] is on record?
A: Inactive

Q: Which “Cytotoxicity IC50” value [6] does the source give for `C/C=C1\C(=O)C[C@H]2[C@@H]3CCC4=CC(=O)CC[C@]4(C)[C@H]3CC[C@]12C` [(Z)-Guggulsterone] here?
A: Inactive

Q: For `CC1(C)CCC(C)(C)c2cc(NC(=O)c3ccc(C(=O)O)cc3)ccc21` [AM80], which “FXR agonist mode Efficacy” value (human FXR [4]) is on record?
A: 18 ± 7

Q: And the “FXR agonist activity” value (human FXR [4])?
A: selectively induced transactivation of FXR

Q: And the EC50 (human FXR [4]; read-out: FXR agonist mode EC50, Table S1, primary screening)?
A: 38.9 ± 2.36 µM

Q: And the “FXR antagonist mode IC50” value (human FXR [5])?
A: Inactive

Q: What about the “Cytotoxicity IC50” value [6] of the same compound?
A: Inactive

Q: With `CC(C)C[C@H](NC(=O)[C@H](Cc1ccccc1)NC(=O)c1cnccn1)B(O)O` [Bortezomib] as the compound, how does the IC50 at 16 h [7] read?
A: 0.22 ± 0.1 µM

Q: What about the “Cytotoxicity Efficacy” value [3] of the same compound?
A: 57 ± 2%

Q: What about the “FXR agonist mode EC50” value (human FXR [4]; Table S1, primary screening) of the same compound?
A: Inactive

Q: And the IC50 (human FXR [5]; [9])?
A: 0.44 ± 0.21 µM

Q: And the “FXR antagonist activity” value (human FXR [5]; FXR-bla assay, CDCA-induced)?
A: inconclusive antagonists

Q: Which “FXR TR-FRET, antagonist IC50” value (FXR-LBD [1]; [8]) does the source give for `CC1=C2C[C@H]3[C@@H](CC=C4C[C@@H](O)CC[C@@]43C)[C@@H]2CC[C@]12O[C@@H]1C[C@H](C)CN[C@H]1[C@H]2C` [Cyclopamine] here?
A: Inactive

Q: What about the “FXR TR-FRET, agonist EC50” value (FXR-LBD [2]) of the same compound?
A: unable to induce coactivator recruitment; also recorded: Inactive

Q: And the IC50 ([3]; Homo sapiens, HEK-293T, read-out: Cell viability IC50)?
A: 17.6 µM

Q: And the EC50 (human FXR [4])?
A: 10.6 ± 3.13 µM

Q: What about the “FXR-bla, agonist Efficacy” value (human FXR [4]) of the same compound?
A: 94% and 94 ± 9%

Q: What about the “FXR-bla, antagonist IC50” value (human FXR [5]) of the same compound?
A: Inactive

Q: Which IC50 at 16 h [7] does the source give for `C[C@H](CCC(=O)O)[C@H]1CC[C@H]2[C@@H]3CC[C@@H]4C[C@H](O)CC[C@]4(C)[C@H]3C[C@H](O)[C@]12C` [DCA, Deoxycholic acid] here?
A: 66.5 ± 16.1 µM

Q: What about the “Cytotoxicity Efficacy” value [3] of the same compound?
A: 73 ± 17%

Q: What about the EC50 (human FXR [4]) of the same compound?
A: 47.3 µM

Q: And the “FXR agonist activity” value (human FXR [4])?
A: selectively induced transactivation of FXR

Q: What about the “FXR agonist mode Efficacy” value (human FXR [4]; Table S1, primary screening, CDCA 100%) of the same compound?
A: 50 ± 12%

Q: What about the “FXR antagonist mode IC50” value (human FXR [5]; Table S1, primary screening, 50 µM CDCA) of the same compound?
A: Inactive

Q: With `C[C@H]1O[C@@H](O[C@H]2[C@@H](O)C[C@H](O[C@H]3[C@@H](O)C[C@H](O[C@H]4CC[C@@]5(C)[C@H](CC[C@@H]6[C@@H]5C[C@@H](O)[C@]5(C)[C@@H](C7=CC(=O)OC7)CC[C@]65O)C4)O[C@@H]3C)O[C@@H]2C)C[C@H](O)[C@@H]1O` [Digoxin] as the compound, how does the IC50 at 16 h [7] read?
A: 0.02 ± 0.01 µM

Q: What about the “Cytotoxicity Efficacy” value [3] of the same compound?
A: 35 ± 7%

Q: And the “FXR agonist mode EC50” value (human FXR [4])?
A: Inactive

Q: What about the “FXR antagonist activity” value (human FXR [5]) of the same compound?
A: inconclusive antagonists

Q: What about the “FXR antagonist mode Efficacy” value (human FXR [5]) of the same compound?
A: 92 ± 10%

Q: And the IC50 (human FXR [5]; [9])?
A: 0.08 ± 0.02 µM

Q: For `O=C1c2ccccc2C(=O)C1C(=O)C(c1ccccc1)c1ccccc1` [Diphacinone], which “FXR TR-FRET, antagonist IC50” value (FXR-LBD [1]) is on record?
A: Inactive

Q: And the “FXR TR-FRET, agonist EC50” value (FXR-LBD [2])?
A: Inactive

Q: And the “Cell viability IC50” value [3]?
A: Inactive

Q: And the “FXR-bla, agonist EC50” value (human FXR [4])?
A: Inactive

Q: And the IC50 (human FXR [5]; FXR-bla, antagonist IC50)?
A: 15 µM

Q: For `OCCN(CCO)c1nc(N2CCCCC2)c2nc(N(CCO)CCO)nc(N3CCCCC3)c2n1` [Dipyridamole], which “FXR TR-FRET, antagonist IC50” value (FXR-LBD [1]; [8]) is on record?
A: Inactive

Q: What about the “FXR TR-FRET, agonist EC50” value (FXR-LBD [2]) of the same compound?
A: Inactive

Q: And the “Cell viability IC50” value [3]?
A: Inactive

Q: What about the “FXR-bla, agonist EC50” value (human FXR [4]) of the same compound?
A: Inactive

Q: And the IC50 (human FXR [5])?
A: 3.5 ± 0.4 µM

Q: What about the “FXR-bla, antagonist Efficacy” value (human FXR [5]; Table 1, 50 μM CDCA) of the same compound?
A: 81 ± 5%

Q: What about the “FXR antagonist Efficacy” value (human FXR [5]; Table S3, 50 µM CDCA) of the same compound?
A: 53 ± 11%

Q: For `Cn1cc(C2=C(c3cn(C4CCN(Cc5ccccn5)CC4)c4ccccc34)C(=O)NC2=O)c2ccccc21` [Enzastaurin], which “FXR TR-FRET, antagonist IC50” value (FXR-LBD [1]; [8]) is on record?
A: Inactive

Q: What about the “FXR TR-FRET, agonist EC50” value (FXR-LBD [2]) of the same compound?
A: Inactive

Q: And the “Cell viability IC50” value [3]?
A: Inactive

Q: And the “FXR-bla, agonist EC50” value (human FXR [4])?
A: Inactive

Q: And the IC50 (human FXR [5])?
A: 10.2 ± 0.69 µM

Q: What about the “FXR-bla, antagonist Efficacy” value (human FXR [5]; Table 1, 50 μM CDCA) of the same compound?
A: 110 ± 9%
